Test results as given in patent EP4702982A1, “VITALITY IMPROVING AGENT, COMPOSITION FOR IMPROVING VITALITY, AND FOOD COMPOSITION FOR IMPROVING VITALITY” (Med R&D Co. Ltd, priority 2023, dated 2024).

Columns and labels:
[1] = system: FGF1 gene (fiblobrast growth factor 1); assay: Quantitative real-time PCR of hair growth-related gene FGF1 in HFDPCs; assay type: cell-based, human; set-up: key to FGF1: -: Expression was suppressed.; ±: No significant difference was observed in the expression enhancing effects at at least some of the concentrations.; +: A significant difference with p < 0.05 or more was observed in the expression enhancing effects at all concentrations.; ++: A significant difference with p < 0.01 or more was observed in the expression enhancing effects at all concentrations; settings: for FGF1: extracts at a volume of 1/6,000 or 1/10,000 (Production Examples 1 and 6 at non-cytotoxic concentration), D-pinitol and shikimic acid at 1 µM and 10 µM; for expression enhancing effects for FGF1 (in words): summary of Table 5
Description: (§1) The pine needle extract of Production Example 1 was added to the culture medium for HFDPCs, and the expression of hair growth markers was measured by quantitative real-time PCR. As the hair growth markers, CTNNB1 gene (β-catenin), ALPL gene (alkaline phosphatase), and FGF1 gene (fiblobrast growth factor 1) were examined. It is known that β-catenin induces anagen of the hair cycle and promotes the proliferation of keratinocytes. ALPL is a representative hair growth marker in the hair papilla cells. FGF1 is a marker for morphogenesis of hair follicles. HFDPCs were seeded in a 6-well plate at a concentration of 5 × 10^4 cells/well and incubated at 37°C for 24 hours. Subsequently, the culture medium was removed and replaced with a culture medium containing a pine needle extract at a volume of 1/4,000 and 1/2,000. Furthermore, for a comparison, cells treated with a culture medium to which minoxidil (0.1 µM), an existing therapeutic agent for hair loss, was added, were also prepared. Subsequently, after 48 hours, the cells were washed with cold PBS, and total RNA was extracted using an ISOGEN kit (Nippon Gene Co., Ltd.). Subsequently, the total RNA was quantified using a NanoDrop 2000 spectrophotometer (Thermo Fisher Scientific, Inc.), and quantitative real-time PCR analysis was performed. […] Subsequently, real-time PCR was carried out using a 7500 Fast Real-Time PCR system (Software 1.3.1, Thermo Fisher Scientific, Inc.) and TaqMan probes specific for CTNNB1, ALPL, and FGF1. GAPDH was used as an endogenous control, and the 2^- △△Ct method was applied, to calculate the relative amount of mRNA in comparison with GAPDH. The effect of the pine needle extracts of Production Examples 3 to 6 on the hair growth-related genes was examined by the same method as that used in Experimental Example 6. Furthermore, the same examination was carried out for D-pinitol and shikimic acid. The pine needle extracts of Production Examples 3 to 6 were each added to the culture medium for cells at a volume of 1/6,000 or a volume of 1/10,000. The pine needle extracts of Production Examples 1 and 6 were each added to the culture medium for cells at a concentration at which cytotoxicity was not observed. D-pinitol was added to the culture medium for cells at 1 µM and 10 µM. Shikimic acid was added to the culture medium for cells at 1 µM and 10 µM. In the following Table 5, "CTNNB1", "ALPL", and "FGF1" indicate the evaluation results for the expression enhancing effects of each hair growth-related gene. […]

[2] = system: human primary hair papilla cells (HFDPC); assay: Cytotoxicity (MTT cell viability) in hair papilla cells; assay type: cell-based; set-up: key: -: No cytotoxicity was observed.; ±: The cell viability was reduced by 40% or more at a volume of 1/100.; +: The cell viability was reduced by 10% or more at a volume of 1/10,000.; ++: The cell viability was reduced by 40% or more at a volume of 1/10,000; settings: same method as Experimental Example 4
Description: The cytotoxicity of the pine needle extract of Production Example 1 was examined. Regarding the cells, human primary hair papilla cells (HFDPC, purchased from PromoCell GmbH), which are mesenchymal cells isolated from the papilla of normal human scalp hair follicles, were used. HFDPCs were seeded on a collagen-coated 96-well plate at a concentration of 5 × 10^4 cells/well and incubated at 37°C in a humidified atmosphere of 5% CO2. As a culture medium, a hair papilla cell growth culture medium to which growth factors (bovine fetal serum, insulin, transferrin, triiodothyronine, bovine pituitary extract, and a cyproterone solution) had been added was used. After 24 hours, the culture medium for the cells was replaced with a culture medium to which a pine needle extract was added at a volume of 0 (control), 1/6,000, 1/5,000, 1/4,000, 1/3,000, 1/2,000, 1/1,000, 1/500, 1/250, or 1/100, and the cells were incubated for 48 hours. […] Specifically, an MTT reagent (5 mg/mL) was added to the cells, the cells were incubated for 8 hours, subsequently 10% sodium dodecyl sulfate (SDS) was added thereto, and the cells were incubated overnight. Thereafter, the absorbance at 570 nm was measured using a microplate reader, and the cell viability was quantified as a proportion (%) of the absorbance with respect to the absorbance of untreated cells. […]

[3] = system: ALPL gene (alkaline phosphatase); assay: Quantitative real-time PCR of hair growth-related gene ALPL in HFDPCs; assay type: cell-based, human; set-up: key to ALPL: -: Expression was suppressed.; ±: No significant difference was observed in the expression enhancing effects at at least some of the concentrations.; +: A significant difference with p < 0.05 or more was observed in the expression enhancing effects at all concentrations.; ++: A significant difference with p < 0.01 or more was observed in the expression enhancing effects at all concentrations; settings: for ALPL: extracts at a volume of 1/6,000 or 1/10,000 (Production Examples 1 and 6 at non-cytotoxic concentration), D-pinitol and shikimic acid at 1 µM and 10 µM; for expression enhancing effects for ALPL (in words): summary of Table 5
Description: as §1

[4] = system: CTNNB1 gene (β-catenin); assay: Quantitative real-time PCR of hair growth-related gene CTNNB1 in HFDPCs; assay type: cell-based, human; set-up: key to CTNNB1: -: Expression was suppressed.; ±: No significant difference was observed in the expression enhancing effects at at least some of the concentrations.; +: A significant difference with p < 0.05 or more was observed in the expression enhancing effects at all concentrations.; ++: A significant difference with p < 0.01 or more was observed in the expression enhancing effects at all concentrations; settings: for CTNNB1: extracts at a volume of 1/6,000 or 1/10,000 (Production Examples 1 and 6 at non-cytotoxic concentration), D-pinitol and shikimic acid at 1 µM and 10 µM; for expression enhancing effects for CTNNB1 (in words): summary of Table 5
Description: as §1

[5] = Body weight and food intake during 7-day oral administration; assay type: in vivo, ICR mouse; settings: 20 mg/kg bupropion oral, daily for 7 days
Description: In the following Table 6, "LPS" indicates lipopolysaccharide. Furthermore, bupropion administered to a positive control group is an antidepressant. The mice in each group were kept for 7 days to be acclimatized, and then a pine needle extract was orally administered daily for 7 days. Thereafter, neuroinflammation was induced in the brain by a single intraperitoneal administration of LPS, and depression was developed. A tail suspension test was performed the day after the administration of LPS. In the tail suspension test, a SMART 3.0 video image behavior analysis device (Panlab S.L.U.) was used. The brain was removed the day after the tail suspension test, and the hippocampus was further collected and used in the experiment that will be described later.

SMILES	FGF1 [1]	expression enhancing effects for FGF1 (in words) [1]	Cytotoxicity [2]	ALPL [3]	expression enhancing effects for ALPL (in words) [3]	CTNNB1 [4]	expression enhancing effects for CTNNB1 (in words) [4]	Final body weight [5] [g]	Increase in body weight (g / 7 days) [5] [g / 7 days]	Total amount of food intake (g / 7 days) [5] [g / 7 days]	Initial body weight ([5]; baseline) [g]
CO[C@H]1[C@H](O)[C@@H](O)[C@@H](O)[C@H](O)[C@@H]1O [D-pinitol]	++	exhibited expression enhancing effects	-	-	did not exhibit expression enhancing effects	++	exhibited expression enhancing effects				
O=C(O)C1=C[C@@H](O)[C@@H](O)[C@H](O)C1 [Shikimic acid]	++	exhibited expression enhancing effects	-	±	did not exhibit expression enhancing effects	+	exhibited expression enhancing effects				
CC(NC(C)(C)C)C(=O)c1cccc(Cl)c1 (stereo not drawn) [bupropion]								35.6 ± 0.7	2.9 ± 0.4	25.0 ± 1.2	32.7 ± 0.8
